According to patent US20250302972A1, “FORMULATION” (ENA Respiratory Pty Ltd, priority 2021, published 2025):
Values joined by “and” are separate entries in the source; they are usually repeats but may differ in a detail not shown here. Equal entries are not always repeated.

Tests used:
Assay type in all cases: cell-based
HEK-Blue Null2 cells = experiment: HEK-Blue Null2 control cell line (control for mouse TLR2); conditions: TLR2-free control cells
Procedure: (§1) The secreted embryonic alkaline phosphatase (SEAP) reporter is under the control of a promoter inducible by the transcription factor NF-κB. This reporter gene allows the monitoring of signaling through the TLR, based on the activation of NF-κB. In a 96-well plate (200 μL total volume) containing the appropriate cells (50,000-75,000 cells/well), 20 μL of the test article or the positive control ligand (HKLC) is added to the wells. The media added to the wells is designed for the detection of NF-κB induced SEAP expression. After a 16-24-hour incubation the optical density (OD) is read at 650 nm on a Molecular Devices SpectraMax 340PC absorbance detector.

HEK-Blue Null1 cells = experiment: HEK-Blue Null1 control cell line (control for human TLR2); conditions: TLR2-free control cells
Procedure: as §1

mouse TLR2 = biological target: T1, mouse TLR2 (Mus musculus, UniProt Q9QUN7); experiment: HEK-Blue mTLR2 Dose Response (NF-κB SEAP reporter)
T1 construct: expressed in transfected cells; host or cells: HEK-Blue mTLR2
T1 sequence (Q9QUN7 25-784): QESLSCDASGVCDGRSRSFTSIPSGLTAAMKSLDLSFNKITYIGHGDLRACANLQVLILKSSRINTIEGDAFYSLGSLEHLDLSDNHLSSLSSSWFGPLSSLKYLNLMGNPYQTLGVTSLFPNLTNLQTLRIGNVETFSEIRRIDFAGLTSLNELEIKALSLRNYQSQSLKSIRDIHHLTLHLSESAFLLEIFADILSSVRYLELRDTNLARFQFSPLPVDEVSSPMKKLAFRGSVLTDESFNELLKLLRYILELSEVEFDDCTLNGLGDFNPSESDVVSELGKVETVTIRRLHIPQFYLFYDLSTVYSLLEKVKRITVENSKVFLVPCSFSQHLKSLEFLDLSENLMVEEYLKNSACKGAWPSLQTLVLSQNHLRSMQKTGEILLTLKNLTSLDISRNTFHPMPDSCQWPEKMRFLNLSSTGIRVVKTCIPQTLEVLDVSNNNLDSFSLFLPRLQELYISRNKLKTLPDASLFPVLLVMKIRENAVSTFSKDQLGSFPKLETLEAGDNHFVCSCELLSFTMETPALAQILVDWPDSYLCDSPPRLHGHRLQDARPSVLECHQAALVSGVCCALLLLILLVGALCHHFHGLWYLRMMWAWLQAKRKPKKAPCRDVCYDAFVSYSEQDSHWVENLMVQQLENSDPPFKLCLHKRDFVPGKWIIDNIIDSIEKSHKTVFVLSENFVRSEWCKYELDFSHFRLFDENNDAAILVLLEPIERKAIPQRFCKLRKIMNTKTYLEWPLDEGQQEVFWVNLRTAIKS
T1 sequence (Q9Y2C9 32-796 partner): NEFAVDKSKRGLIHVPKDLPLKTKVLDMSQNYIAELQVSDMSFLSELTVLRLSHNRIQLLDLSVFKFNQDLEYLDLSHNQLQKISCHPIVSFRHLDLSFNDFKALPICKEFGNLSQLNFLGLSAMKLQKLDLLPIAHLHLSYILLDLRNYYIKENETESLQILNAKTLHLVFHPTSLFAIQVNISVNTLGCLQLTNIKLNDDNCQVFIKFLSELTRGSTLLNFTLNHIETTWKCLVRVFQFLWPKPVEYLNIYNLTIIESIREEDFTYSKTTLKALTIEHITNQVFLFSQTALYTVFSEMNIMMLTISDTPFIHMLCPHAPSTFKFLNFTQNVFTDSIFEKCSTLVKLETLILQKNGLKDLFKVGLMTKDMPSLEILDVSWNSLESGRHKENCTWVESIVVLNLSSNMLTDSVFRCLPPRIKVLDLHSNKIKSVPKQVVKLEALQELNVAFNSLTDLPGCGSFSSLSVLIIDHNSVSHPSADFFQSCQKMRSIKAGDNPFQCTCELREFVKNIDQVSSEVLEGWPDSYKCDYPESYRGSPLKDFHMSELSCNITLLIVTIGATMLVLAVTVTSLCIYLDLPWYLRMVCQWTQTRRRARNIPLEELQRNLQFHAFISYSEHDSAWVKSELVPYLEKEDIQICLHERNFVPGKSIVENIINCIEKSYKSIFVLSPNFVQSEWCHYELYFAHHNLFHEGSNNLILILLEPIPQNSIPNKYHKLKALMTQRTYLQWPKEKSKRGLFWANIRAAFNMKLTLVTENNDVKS
Procedure: (§2) Toll-Like Receptor (TLR) stimulation is tested by assessing NF-κB activation in the TLR expressing cell lines. HEK-Blue h/mTLR2 cells have been stably transfected with human or mouse TLR2 and CD14. The activity of the test articles are tested on human and mouse TLR2, as potential agonists. The test articles are evaluated at seven concentrations and compared to control ligands (see list below). These steps are performed in triplicate.
A 5 μg/mL working stock was then prepared for each compound from the 20 μg/mL dilution in sterile PBS. Starting from the 5 μg/mL working stock, a series of six 1:4 serial dilutions were made by mixing 100 μL of the previous highest dilution with 300 μL sterile PBS.
as §1

human TLR2 = biological target: T2, human TLR2 (Homo sapiens, UniProt O60603); experiment: HEK-Blue hTLR2 Dose Response (NF-κB SEAP reporter); conditions: for stimulatory (agonist) activity for hTLR2: HEK-Blue hTLR2
T2 construct: expressed in transfected cells; host or cells: HEK-Blue hTLR2
T2 sequence (O60603 21-784): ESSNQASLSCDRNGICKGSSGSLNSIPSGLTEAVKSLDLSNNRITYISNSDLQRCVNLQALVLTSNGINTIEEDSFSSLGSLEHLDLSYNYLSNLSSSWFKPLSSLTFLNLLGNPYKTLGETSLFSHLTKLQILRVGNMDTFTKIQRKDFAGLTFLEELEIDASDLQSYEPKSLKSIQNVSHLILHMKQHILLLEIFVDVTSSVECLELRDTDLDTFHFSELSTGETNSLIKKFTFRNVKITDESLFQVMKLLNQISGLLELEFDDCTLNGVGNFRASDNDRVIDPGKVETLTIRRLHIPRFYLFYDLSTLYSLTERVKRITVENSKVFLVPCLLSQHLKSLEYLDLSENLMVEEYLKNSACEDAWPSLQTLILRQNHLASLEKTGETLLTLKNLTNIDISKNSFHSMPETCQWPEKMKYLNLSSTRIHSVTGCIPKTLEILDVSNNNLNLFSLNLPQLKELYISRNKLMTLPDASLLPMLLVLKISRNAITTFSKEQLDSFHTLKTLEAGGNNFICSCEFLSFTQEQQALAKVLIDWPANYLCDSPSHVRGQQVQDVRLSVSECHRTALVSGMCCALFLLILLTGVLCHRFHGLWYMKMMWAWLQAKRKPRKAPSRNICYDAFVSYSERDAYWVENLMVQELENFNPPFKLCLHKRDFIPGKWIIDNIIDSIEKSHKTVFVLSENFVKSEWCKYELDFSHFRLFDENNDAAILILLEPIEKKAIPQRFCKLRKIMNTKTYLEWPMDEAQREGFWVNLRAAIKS
T2 sequence (Q9Y2C9 32-796 partner): as the sequence (Q9Y2C9 32-796 partner) above
Procedure: as §2
[…] Starting from the 5 μg/mL working stock, a series of six 1:4 serial dilutions were made by mixing 100 μL of the previous highest dilution with 300 μL sterile PBS.
as §1

Row | Compound | stimulatory response in HEK-Blue Null2 (mouse) cells (HEK-Blue Null2 cells) | stimulatory response in HEK-Blue Null1 (human) cells (HEK-Blue Null1 cells) | stimulatory (agonist) activity for mTLR2 (mouse TLR2) | Fold Induction (ratio of average induced value to average non-induced value) (human TLR2; 0.12 pg/mL) | optical density (650 nm), Average (human TLR2; 0.12 pg/mL) | optical density (650 nm), screenings 1-3 (human TLR2; 0.12 pg/mL) | Fold Induction (human TLR2; 0.49 pg/mL) | optical density (650 nm), Average (human TLR2; 0.49 pg/mL) | optical density (650 nm), screenings 1-3 (human TLR2; 0.49 pg/mL) | Fold Induction (human TLR2; 1.95 pg/mL) | optical density (650 nm), Average (human TLR2; 1.95 pg/mL) | optical density (650 nm), screenings 1-3 (human TLR2; 1.95 pg/mL) | Fold Induction (human TLR2; 7.81 pg/mL) | optical density (650 nm), Average (human TLR2; 7.81 pg/mL) | optical density (650 nm), screenings 1-3 (human TLR2; 7.81 pg/mL) | Fold Induction (human TLR2; 31.25 pg/mL) | optical density (650 nm), Average (human TLR2; 31.25 pg/mL) | optical density (650 nm), screenings 1-3 (human TLR2; 31.25 pg/mL) | Fold Induction (human TLR2; 125 pg/mL) | optical density (650 nm), Average (human TLR2; 125 pg/mL) | also measured
1 | CCCCCCCCCCCCCC[C@@H](C)C(=O)OC[C@H](CSC[C@H](N)C(=O)N[C@@H](CO)C(=O)NCCOCCOCCOCCOCCOCCOCCOCCOCCOCCOCCOCCOCCOCCOCCOCCOCCOCCOCCOCCOCCOCCOCCOCCOCCOCCOCCOCCOCCC(=O)NCC(N)=O)OC(=O)[C@H](C)CCCCCCCCCCCCCC [B6] | not observed | not observed | possesses stimulatory activity | 9.4 | 0.679 | 0.591 and 0.742 and 0.704 | 16.1 | 1.156 | 1.230 and 1.151 and 1.088 | 24.8 | 1.785 | 1.755 and 1.776 and 1.824 | 30.4 | 2.186 | 2.154 and 2.186 and 2.219 | 35.1 | 2.529 | 2.512 and 2.527 and 2.547 | 34.3 | 2.470 | optical density (650 nm), screenings 1-3 (human TLR2; 125 pg/mL): 2.522 and 2.466 and 2.422; Fold Induction (human TLR2; 500 pg/mL): 36.6; optical density (650 nm), Average (human TLR2; 500 pg/mL): 2.637; optical density (650 nm), screenings 1-3 (human TLR2; 500 pg/mL): 2.649 and 2.606 and 2.656; stimulatory (agonist) activity for hTLR2 (human TLR2): possesses stimulatory activity; EC50 (human TLR2; agonism of hTLR2, HEK-Blue hTLR2): 0.34 nM
2 | CCCCCCCCCCCCCC[C@H](C)C(=O)OC[C@H](CSC[C@H](N)C(=O)N[C@@H](CO)C(=O)NCCOCCOCCOCCOCCOCCOCCOCCOCCOCCOCCOCCOCCOCCOCCOCCOCCOCCOCCOCCOCCOCCOCCOCCOCCOCCOCCOCCOCCC(=O)NCC(N)=O)OC(=O)[C@@H](C)CCCCCCCCCCCCCC [B8] | not observed | not observed | possesses stimulatory activity | 25.4 | 1.928 | 1.936 and 1.856 and 1.992 | 29.5 | 2.243 | 2.345 and 2.229 and 2.154 | 32.4 | 2.465 | 2.469 and 2.420 and 2.507 | 33.8 | 2.565 | 2.326 and 2.636 and 2.734 | 34.9 | 2.652 | 2.563 and 2.643 and 2.751 | 36 | 2.735 | optical density (650 nm), screenings 1-3 (human TLR2; 125 pg/mL): 2.746 and 2.716 and 2.743; Fold Induction (human TLR2; 500 pg/mL): 35.1; optical density (650 nm), Average (human TLR2; 500 pg/mL): 2.668; optical density (650 nm), screenings 1-3 (human TLR2; 500 pg/mL): 2.648 and 2.664 and 2.693; stimulatory (agonist) activity for hTLR2 (human TLR2): possesses stimulatory activity
